Data published in patent US11524966B1 (Valo Early Discovery, Inc., priority 2017, dated 2022).

Target: T1, USP25 (USP25-His6, Boston Biochem E-546) (Homo sapiens, UniProt Q9UHP3)
T1 construct: His6; purchased Boston Biochem E-546
T1 sequence (Q9UHP3 1-1055): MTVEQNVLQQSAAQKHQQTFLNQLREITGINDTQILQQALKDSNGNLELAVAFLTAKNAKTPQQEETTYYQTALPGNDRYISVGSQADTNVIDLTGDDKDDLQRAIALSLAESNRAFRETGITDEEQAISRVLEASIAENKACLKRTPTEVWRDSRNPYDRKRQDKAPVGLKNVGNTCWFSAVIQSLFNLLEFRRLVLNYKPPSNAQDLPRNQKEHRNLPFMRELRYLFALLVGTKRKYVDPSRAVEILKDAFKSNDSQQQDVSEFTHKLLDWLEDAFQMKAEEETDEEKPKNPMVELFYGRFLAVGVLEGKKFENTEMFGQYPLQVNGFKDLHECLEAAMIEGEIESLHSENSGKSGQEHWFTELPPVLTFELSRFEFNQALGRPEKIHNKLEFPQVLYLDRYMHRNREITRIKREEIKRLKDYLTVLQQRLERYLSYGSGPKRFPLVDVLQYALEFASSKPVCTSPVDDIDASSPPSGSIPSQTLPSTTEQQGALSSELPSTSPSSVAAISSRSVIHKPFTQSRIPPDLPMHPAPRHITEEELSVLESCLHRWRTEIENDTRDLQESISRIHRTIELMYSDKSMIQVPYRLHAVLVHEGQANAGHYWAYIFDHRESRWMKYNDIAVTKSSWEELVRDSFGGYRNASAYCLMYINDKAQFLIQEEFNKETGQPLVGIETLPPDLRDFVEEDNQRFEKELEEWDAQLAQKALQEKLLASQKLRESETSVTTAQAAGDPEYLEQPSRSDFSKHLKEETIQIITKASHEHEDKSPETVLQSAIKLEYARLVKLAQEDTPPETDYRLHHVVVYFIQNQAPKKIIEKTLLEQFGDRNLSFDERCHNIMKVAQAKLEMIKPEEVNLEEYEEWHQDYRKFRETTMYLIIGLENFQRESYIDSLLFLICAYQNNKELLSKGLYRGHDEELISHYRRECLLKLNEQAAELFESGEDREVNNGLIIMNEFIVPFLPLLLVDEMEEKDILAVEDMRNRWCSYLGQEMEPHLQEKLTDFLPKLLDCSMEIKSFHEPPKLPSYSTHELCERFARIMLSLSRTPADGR
Assay: Ubiquitin-Rhodamine 110 Assay for USP25 Activity, Example A-2
Format: biochemical
Settings: Ubiquitin-Rhodamine 110 assay, Example A-2; read-out: USP25 A-2 IC50 range
Summary of the method: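 USP25-His6 (75 pM) was preincubated with compound (10-point, 3-fold series, 25 μM to 1.3 nM) for 30 min in 20 mM Tris-HCl pH 8.0, 3 mM BME, 0.03% BGG, 0.01% Triton X-100. Ub-Rh110 (25 nM, <<Km) was then added for 45 min at room temperature, citric acid-stopped, and fluorescence read at 485/535 nm.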

SMILES | IC50 [nM]
Cc1ccc2c(N)c(C(=O)N[C@H]3COc4cc(N5CC6CCC[C@@]6(N)C5)ccc4C3)sc2n1 (stereo partly drawn) [Example 248, N-[(3R)-7-[(3aS)-3a-amino-octahydrocyclopenta[c]pyrrol-2-yl]-3,4-dihydro-2H-1-benzopyran-3-yl]-3-amino-6-methylthieno[2,3-b]pyridine-2-carboxamide] | 200 to 2000
Cc1ccc2c(N)c(C(=O)N[C@H]3COc4cc(N5CC6CCC[C@]6(N)C5)ccc4C3)sc2n1 (stereo partly drawn) [Example 249, N-[(3R)-7-[(3aR)-3a-amino-octahydrocyclopenta[c]pyrrol-2-yl]-3,4-dihydro-2H-1-benzopyran-3-yl]-3-amino-6-methylthieno[2,3-b]pyridine-2-carboxamide] | 50 to 200
COC[C@@H]1CN(c2cc(F)c3c(c2)OC[C@H](NC(=O)c2sc4nc(C)ccc4c2N)C3)C[C@@H]1N [Example 250, 3-amino-N-[(3R)-7-[(3R,4R)-3-amino-4-(methoxymethyl)pyrrolidin-1-yl]-5-fluoro-3,4-dihydro-2H-1-benzopyran-3-yl]-6-methylthieno[2,3-b]pyridine-2-carboxamide] | 200 to 2000
COC[C@H]1CN(c2cc(F)c3c(c2)OC[C@H](NC(=O)c2sc4nc(C)ccc4c2N)C3)C[C@H]1N [Example 251, 3-amino-N-[(3R)-7-[(3S,4S)-3-amino-4-(methoxymethyl)pyrrolidin-1-yl]-5-fluoro-3,4-dihydro-2H-1-benzopyran-3-yl]-6-methylthieno[2,3-b]pyridine-2-carboxamide] | 50 to 200
COC[C@@H]1CN(c2ccc3c(c2)CC[C@H](NC(=O)c2sc4nc(C)ccc4c2N)C3)C[C@@H]1N [Example 252, 3-amino-N-[(2S)-6-[(3R,4R)-3-amino-4-(methoxymethyl)pyrrolidin-1-yl]-1,2,3,4-tetrahydronaphthalen-2-yl]-6-methylthieno[2,3-b]pyridine-2-carboxamide] | 200 to 2000
COC[C@H]1CN(c2ccc3c(c2)CC[C@H](NC(=O)c2sc4nc(C)ccc4c2N)C3)C[C@H]1N [Example 253, 3-amino-N-[(2S)-6-[(3S,4S)-3-amino-4-(methoxymethyl)pyrrolidin-1-yl]-1,2,3,4-tetrahydronaphthalen-2-yl]-6-methylthieno[2,3-b]pyridine-2-carboxamide] | 200 to 2000
CCO[C@@H]1CN(c2ccc3c(n2)CC[C@H](NC(=O)c2sc4nc(C)ccc4c2N)C3)C[C@@H]1N [Example 254, 3-amino-N-[(6S)-2-[(3S,4R)-3-amino-4-ethoxypyrrolidin-1-yl]-5,6,7,8-tetrahydroquinolin-6-yl]-6-methylthieno[2,3-b]pyridine-2-carboxamide] | > 2000
CCO[C@H]1CN(c2ccc3c(n2)CC[C@H](NC(=O)c2sc4nc(C)ccc4c2N)C3)C[C@H]1N [Example 255, 3-amino-N-[(6S)-2-[(3R,4S)-3-amino-4-ethoxypyrrolidin-1-yl]-5,6,7,8-tetrahydroquinolin-6-yl]-6-methylthieno[2,3-b]pyridine-2-carboxamide] | > 2000
Cc1ccc2c(N)c(C(=O)N[C@H]3COc4cc(N5C[C@H](N)C(F)(F)C5)ccc4C3)sc2n1 [Example 256, 3-amino-N-[(3R)-7-[(4S)-4-amino-3,3-difluoropyrrolidin-1-yl]-3,4-dihydro-2H-1-benzopyran-3-yl]-6-methylthieno[2,3-b]pyridine-2-carboxamide] | 200 to 2000
Cc1ccc2c(N)c(C(=O)N[C@H]3COc4cc(N5C[C@@H](N)C(F)(F)C5)ccc4C3)sc2n1 [Example 257, 3-amino-N-[(3R)-7-[(4R)-4-amino-3,3-difluoropyrrolidin-1-yl]-3,4-dihydro-2H-1-benzopyran-3-yl]-6-methylthieno[2,3-b]pyridine-2-carboxamide] | 50 to 200
Cc1ccc2c(N)c(C(=O)N[C@H]3COc4cc(N5C[C@H](N)C6(COC6)C5)ccc4C3)sc2n1 [Example 258, 3-amino-N-[(3R)-7-[(8R)-8-amino-2-oxa-6-azaspiro[3.4]octan-6-yl]-3,4-dihydro-2H-1-benzopyran-3-yl]-6-methylthieno[2,3-b]pyridine-2-carboxamide] | 200 to 2000
Cc1ccc2c(N)c(C(=O)N[C@H]3COc4cc(N5C[C@@H](N)C6(COC6)C5)ccc4C3)sc2n1 [Example 259, 3-amino-N-[(3R)-7-[(8S)-8-amino-2-oxa-6-azaspiro[3.4]octan-6-yl]-3,4-dihydro-2H-1-benzopyran-3-yl]-6-methylthieno[2,3-b]pyridine-2-carboxamide] | 200 to 2000
COC[C@@H]1C[C@@H](N)CN1c1ccc2c(c1)OC[C@H](NC(=O)c1sc3nc(C)ccc3c1N)C2 [Example 260, 3-amino-N-[(3R)-7-[(25,4R)-4-amino-2-(methoxymethyl)pyrrolidin-1-yl]-3,4-dihydro-2H-1-benzopyran-3-yl]-6-methylthieno[2,3-b]pyridine-2-carboxamide] | 1 to 50
